Measurements taken from the supplement of paper PMC10307832.

Assays:
Assay in all cases: relative viability (nuclei count vs DMSO), 5 days (fraction); higher = more cells survive
[1] = compound: COC1=CC=C(C=C1)COC2=C(C=C(C=C2)CC3=CN=C(N=C3N)N)OC [GW-2580]
Summary of the method: (§1)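 Lung cancer cell lines in 1536-well plates were kept overnight at 37 °C, then pinned with five library-drug doses (not always all listed) spaced by √10 on vehicle-anchored plates. After 5 days without medium change, cells were fixed, permeabilised and Hoechst-stained in one step, imaged at 4×, and nuclei were counted with MetaXpress. Viability is treated-well nuclei divided by vehicle-well nuclei, taken as the median over plates. Plates passed only with control CV below 25% and at least one doubling.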

[2] = compound: Cc1cnc(Nc2ccc(OCCN3CCCC3)cc2)nc1Nc1cccc(S(=O)(=O)NC(C)(C)C)c1 [Fedratinib]
Summary of the method: as §1

[3] = compound: COC1=CC=C(C=C1)COC2=C(C=C(C=C2)CC3=CN=C(N=C3N)N)OC [GW-2580] + CC1(C)CCC(c2ccc(Cl)cc2)=C(CN2CCN(c3ccc(C(=O)NS(=O)(=O)c4ccc(N[C@H](CCN5CCOCC5)CSc5ccccc5)c(S(=O)(=O)C(F)(F)F)c4)cc3)CC2)C1 [Navitoclax] (partner 0.5 µM)
Summary of the method: (§2)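 Five library-drug doses in √10 steps were combined with a fixed anchor-drug dose, or a single drug was given alone, by pin tool to lung cancer cell lines in 1536-well plates the day after seeding. Nuclei were stained and counted after 5 days. Relative viability is the nuclei count in treated wells over that in vehicle wells, taken as the median of duplicate plates.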

[4] = compound: COC1=CC=C(C=C1)COC2=C(C=C(C=C2)CC3=CN=C(N=C3N)N)OC [GW-2580] + Nc1nc2[nH]cc(CCc3ccc(C(=O)N[C@@H](CCC(=O)O)C(=O)O)cc3)c2c(=O)[nH]1 [Pemetrexed] (partner 0.2 µM)
Summary of the method: as §2

[5] = compound: Cc1cnc(Nc2ccc(OCCN3CCCC3)cc2)nc1Nc1cccc(S(=O)(=O)NC(C)(C)C)c1 [Fedratinib] + Cc1cc(Nc2cc(N3CCN(C)CC3)nc(Sc3ccc(NC(=O)C4CC4)cc3)n2)n[nH]1 [Tozasertib] (partner 0.1 µM)
Summary of the method: as §2

Cell Line: UMC-11
- relative viability ([1]; 0.08 µM): 1.05
- relative viability ([1]; 0.8 µM): 1.11
- relative viability ([1]; 2.53 µM): 0.923
- relative viability ([1]; 8 µM): 1.2
- relative viability ([2]; 0.1 µM): 0.914
- relative viability ([2]; 0.3162 µM): 0.894
- relative viability ([2]; 1 µM): 0.67
- relative viability ([3]; first compound 0.08 µM): 0.309
- relative viability ([3]; first compound 0.8 µM): 0.342
- relative viability ([3]; first compound 2.53 µM): 0.291
- relative viability ([3]; first compound 8 µM): 0.324
- relative viability ([4]; first compound 0.08 µM): 0.948
- relative viability ([4]; first compound 0.8 µM): 0.939
- relative viability ([4]; first compound 2.53 µM): 0.754
- relative viability ([4]; first compound 8 µM): 0.718
- relative viability ([5]; first compound 0.1 µM): 0.229
- relative viability ([5]; first compound 0.3162 µM): 0.228
- relative viability ([5]; first compound 1 µM): 0.193
